Results reported in PubChem BioAssay AID2060326 (Molecular Pharmacology Branch, DTP, NCI, 2025).
pIC50: −log10 of the molar value. “And” between values parts separate entries of the source, which are not always exact repeats. Identical values can stand only once. Each block holds one compound with its values, some of them ahead of it.

System: MDA-MB-468 multi-cell spheroids, viability
Test: Anticancer human tumor MDA-MB-468 cell line growth inhibition [IpAb];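 further: spheroids exposed to agents for seven days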;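 on viability, T/C: 100% = DMSO vehicle control viability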
Conditions: for viability, T/C: stronger effect = lower value
Outline: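 Spheroids of 60% malignant cells, 25% HUVEC and 15% MSC were exposed to targeted agents combined with ipatasertib or abemaciclib. Doses started at or near clinical Cmax (10 microM when unknown) and fell in half-log steps.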

[1] = curve of first compound, second compound 0.1 µM
[2] = curve of first compound, second compound 0.316 µM
[3] = curve of first compound, second compound 1 µM
[4] = curve of first compound, second compound 3.16 µM
[5] = curve of first compound, second compound 10 µM
[6] = second compound 0.1 µM, first compound 0.0316 µM
[7] = second compound 0.1 µM, first compound 0.1 µM
[8] = second compound 0.316 µM, first compound 0.0316 µM
[9] = second compound 0.316 µM, first compound 0.1 µM
[10] = second compound 1 µM, first compound 0.0316 µM
[11] = second compound 1 µM, first compound 0.1 µM
[12] = second compound 3.16 µM, first compound 0.0316 µM
[13] = second compound 3.16 µM, first compound 0.1 µM
[14] = second compound 10 µM, first compound 0.0316 µM
[15] = second compound 10 µM, first compound 0.1 µM

SMILES: CC(=O)c1c(C)c2cnc(Nc3ccc(N4CCNCC4)cn3)nc2n(C2CCCC2)c1=O + CC(C)NCC(C(=O)N1CCN(c2ncnc3c2C(C)CC3O)CC1)c1ccc(Cl)cc1
- pIC50 [1]: < 6.52
- pIC50 [2]: < 6.52
- pIC50 [3]: 8.35
- pIC50 [4]: > 9.02
- pIC50 [5]: > 9.02
- viability, T/C (second compound 0.1 µM, first compound 0.000949 µM): 87.4%
- viability, T/C (second compound 0.1 µM, first compound 0.003 µM): 80.3%
- viability, T/C (second compound 0.1 µM, first compound 0.00949 µM): 73.1%
- viability, T/C (second compound 0.1 µM, first compound 0.03 µM): 81%
- viability, T/C (second compound 0.1 µM, first compound 0.0949 µM): 71.4%
- viability, T/C (second compound 0.1 µM, first compound 0.3 µM): 77.8%
- viability, T/C (second compound 0.316 µM, first compound 0.000949 µM): 66.1%
- viability, T/C (second compound 0.316 µM, first compound 0.003 µM): 61%
- viability, T/C (second compound 0.316 µM, first compound 0.00949 µM): 57.4%
- viability, T/C (second compound 0.316 µM, first compound 0.03 µM): 54.8%
- viability, T/C (second compound 0.316 µM, first compound 0.0949 µM): 59.5%
- viability, T/C (second compound 0.316 µM, first compound 0.3 µM): 59.5%
- viability, T/C (second compound 1 µM, first compound 0.000949 µM): 57.9%
- viability, T/C (second compound 1 µM, first compound 0.003 µM): 51.8%
- viability, T/C (second compound 1 µM, first compound 0.00949 µM): 46.4%
- viability, T/C (second compound 1 µM, first compound 0.03 µM): 48.1%
- viability, T/C (second compound 1 µM, first compound 0.0949 µM): 49.6%
- viability, T/C (second compound 1 µM, first compound 0.3 µM): 48.3%
- viability, T/C (second compound 3.16 µM, first compound 0.000949 µM): 35.9%
- viability, T/C (second compound 3.16 µM, first compound 0.003 µM): 36.4%
- viability, T/C (second compound 3.16 µM, first compound 0.00949 µM): 31.9%
- viability, T/C (second compound 3.16 µM, first compound 0.03 µM): 32.7%
- viability, T/C (second compound 3.16 µM, first compound 0.0949 µM): 29.5%
- viability, T/C (second compound 3.16 µM, first compound 0.3 µM): 29.8%
- viability, T/C (second compound 10 µM, first compound 0.000949 µM): 18.6%
- viability, T/C (second compound 10 µM, first compound 0.003 µM): 19.3%
- viability, T/C (second compound 10 µM, first compound 0.00949 µM): 19.9%
- viability, T/C (second compound 10 µM, first compound 0.03 µM): 17.5%
- viability, T/C (second compound 10 µM, first compound 0.0949 µM): 17.3%
- viability, T/C (second compound 10 µM, first compound 0.3 µM): 17.6%

- pIC50 (curve of compound): < 5.00
SMILES: CCCS(=O)(=O)Nc1ccc(F)c(C(=O)c2c[nH]c3ncc(-c4ccc(Cl)cc4)cc23)c1F
- viability, T/C (compound 0.0316 µM): 99.5% and 107%
- viability, T/C (compound 0.1 µM): 99% and 91.6%
- viability, T/C (compound 0.316 µM): 95% and 103%
- viability, T/C (compound 1 µM): 100% and 109%
- viability, T/C (compound 3.16 µM): 97.5% and 106%
- viability, T/C (compound 10 µM): 66.3% and 75.8%

SMILES: Cn1ncnc1[C@H]1c2n[nH]c(=O)c3cc(F)cc(c23)N[C@@H]1c1ccc(F)cc1 + CC(C)NCC(C(=O)N1CCN(c2ncnc3c2C(C)CC3O)CC1)c1ccc(Cl)cc1
- pIC50 [1]: < 7.00
- pIC50 [2]: < 7.00
- pIC50 [3]: 7.75
- pIC50 [4]: > 9.50
- pIC50 [5]: > 9.50
- viability, T/C (second compound 0.1 µM, first compound 0.000316 µM): 101%
- viability, T/C (second compound 0.1 µM, first compound 0.001 µM): 102%
- viability, T/C (second compound 0.1 µM, first compound 0.00316 µM): 86.9%
- viability, T/C (second compound 0.1 µM, first compound 0.01 µM): 73.8%
- viability, T/C [6]: 85.8%
- viability, T/C [7]: 65.7%
- viability, T/C (second compound 0.316 µM, first compound 0.000316 µM): 62%
- viability, T/C (second compound 0.316 µM, first compound 0.001 µM): 70.7%
- viability, T/C (second compound 0.316 µM, first compound 0.00316 µM): 62.1%
- viability, T/C (second compound 0.316 µM, first compound 0.01 µM): 60.2%
- viability, T/C [8]: 55.5%
- viability, T/C [9]: 57.7%
- viability, T/C (second compound 1 µM, first compound 0.000316 µM): 60.8%
- viability, T/C (second compound 1 µM, first compound 0.001 µM): 59.2%
- viability, T/C (second compound 1 µM, first compound 0.00316 µM): 55.1%
- viability, T/C (second compound 1 µM, first compound 0.01 µM): 54.2%
- viability, T/C [10]: 46.2%
- viability, T/C [11]: 41.8%
- viability, T/C (second compound 3.16 µM, first compound 0.000316 µM): 38.9%
- viability, T/C (second compound 3.16 µM, first compound 0.001 µM): 37.8%
- viability, T/C (second compound 3.16 µM, first compound 0.00316 µM): 40%
- viability, T/C (second compound 3.16 µM, first compound 0.01 µM): 34.9%
- viability, T/C [12]: 34%
- viability, T/C [13]: 26.6%
- viability, T/C (second compound 10 µM, first compound 0.000316 µM): 19.3%
- viability, T/C (second compound 10 µM, first compound 0.001 µM): 22.5%
- viability, T/C (second compound 10 µM, first compound 0.00316 µM): 18.6%
- viability, T/C (second compound 10 µM, first compound 0.01 µM): 18.8%
- viability, T/C [14]: 16%
- viability, T/C [15]: 15.6%

- IC50 (compound alone, run of 05/18/2021): 1.25 µM [middle of 12 runs]
SMILES: CC(C)NCC(C(=O)N1CCN(c2ncnc3c2C(C)CC3O)CC1)c1ccc(Cl)cc1 (stereo unspecified)
- viability, T/C (compound 0.1 µM): 91.9% [middle of 13 runs]
- viability, T/C (compound 1 µM): 54.4% [middle of 13 runs]
- viability, T/C (compound 3.16 µM): 35.1% [middle of 13 runs]
- viability, T/C (compound 10 µM): 18.4% [middle of 13 runs]

SMILES: Cn1ncc(Cl)c1-c1cc(C(=O)NC(CN)Cc2cccc(F)c2)sc1Cl (stereo unspecified) + CC(C)NCC(C(=O)N1CCN(c2ncnc3c2C(C)CC3O)CC1)c1ccc(Cl)cc1
- pIC50 [1]: 6.44
- pIC50 [2]: 6.88
- pIC50 [3]: 7.28
- pIC50 [4]: > 7.50
- pIC50 [5]: > 7.50
- viability, T/C [6]: 71.1%
- viability, T/C [7]: 64%
- viability, T/C (second compound 0.1 µM, first compound 0.316 µM): 54.8%
- viability, T/C (second compound 0.1 µM, first compound 1 µM): 30.3%
- viability, T/C (second compound 0.1 µM, first compound 3.16 µM): 16.1%
- viability, T/C (second compound 0.1 µM, first compound 10 µM): 0.14%
- viability, T/C [8]: 57.7%
- viability, T/C [9]: 51.5%
- viability, T/C (second compound 0.316 µM, first compound 0.316 µM): 44%
- viability, T/C (second compound 0.316 µM, first compound 1 µM): 31.8%
- viability, T/C (second compound 0.316 µM, first compound 3.16 µM): 16.6%
- viability, T/C (second compound 0.316 µM, first compound 10 µM): 0.13%
- viability, T/C [10]: 50.5%
- viability, T/C [11]: 50.9%
- viability, T/C (second compound 1 µM, first compound 0.316 µM): 36.3%
- viability, T/C (second compound 1 µM, first compound 1 µM): 28.4%
- viability, T/C (second compound 1 µM, first compound 3.16 µM): 12.6%
- viability, T/C (second compound 1 µM, first compound 10 µM): 0.12%
- viability, T/C [12]: 31.8%
- viability, T/C [13]: 36.1%
- viability, T/C (second compound 3.16 µM, first compound 0.316 µM): 31.5%
- viability, T/C (second compound 3.16 µM, first compound 1 µM): 21.3%
- viability, T/C (second compound 3.16 µM, first compound 3.16 µM): 10.8%
- viability, T/C (second compound 3.16 µM, first compound 10 µM): 0.37%
- viability, T/C [14]: 18.8%
- viability, T/C [15]: 20.4%
- viability, T/C (second compound 10 µM, first compound 0.316 µM): 17.4%
- viability, T/C (second compound 10 µM, first compound 1 µM): 17.4%
- viability, T/C (second compound 10 µM, first compound 3.16 µM): 1.85%
- viability, T/C (second compound 10 µM, first compound 10 µM): 0.18%

- pIC50 (curve of compound): < 7.00
SMILES: Cn1ncnc1[C@H]1c2n[nH]c(=O)c3cc(F)cc(c23)N[C@@H]1c1ccc(F)cc1
- viability, T/C (compound 0.000316 µM): 121% and 90.6%
- viability, T/C (compound 0.001 µM): 105% and 98.7%
- viability, T/C (compound 0.00316 µM): 113% and 81%
- viability, T/C (compound 0.01 µM): 103% and 93.2%
- viability, T/C (compound 0.0316 µM): 84.2% and 83.9%
- viability, T/C (compound 0.1 µM): 68.8% and 65.7%

- pIC50 (curve of compound): 6.31 and 6.30
SMILES: C=CCn1c(=O)c2cnc(Nc3ccc(N4CCN(C)CC4)cc3)nc2n1-c1cccc(C(C)(C)O)n1
- viability, T/C (compound 0.0316 µM): 80.6% and 99.8%
- viability, T/C (compound 0.1 µM): 94.4% and 96.1%
- viability, T/C (compound 0.316 µM): 77.9% and 78.9%
- viability, T/C (compound 1 µM): 6.3% and 7.75%
- viability, T/C (compound 3.16 µM): 3.1% and 3.7%
- viability, T/C (compound 10 µM): 2.62% and 3.3%
